Measured values: PubChem BioAssay (NCI)
“And” between values parts separate entries of the source, which are not always exact repeats. Identical values can stand only once.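 In this assay, cells in 96-well plates receive the compound at five concentrations for 48 hours. Endpoints are linearly interpolated between the surrounding concentrations. GI50 = concentration required for 50% inhibition of growth. Definition used: TGI = concentration required for complete inhibition of growth.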

Tests used:
Assay in all cases: NCI anticancer screen, dose series, 48 h
[1] = test system: SK-MEL-2 melanoma
[2] = test system: IGROV1 ovarian
[3] = test system: SK-MEL-5 melanoma
[4] = test system: UACC-62 melanoma
[5] = test system: ACHN renal
[6] = test system: NCI-H226 lung
[7] = test system: NCI-H522 lung
[8] = test system: SR leukemia
[9] = test system: HS 578T breast
[10] = test system: PC-3 prostate

| SMILES | TGI [1] | TGI [2] | TGI [3] | TGI [4] | TGI [5] | TGI [6] | TGI [7] | TGI [8] | GI50 [9] | TGI [9] | GI50 [1] | GI50 [2] | GI50 [6] | GI50 [10] | TGI [10] | GI50 [3] | GI50 [7] | GI50 [5] | GI50 [8] | GI50 [4] |
| --- | --- | --- | --- | --- | --- | --- | --- | --- | --- | --- | --- | --- | --- | --- | --- | --- | --- | --- | --- | --- |
| COc1ccc(OC)c2cc(C3(C)SCCCS3)ccc12 | > 100 µM | > 100 µM | > 100 µM | > 100 µM | > 100 µM |  |  |  |  |  |  |  |  |  |  |  |  |  |  |  |
| C=CCN(N=O)C(=O)N(CCC)CCCCC(NC(C)=O)C(=O)NCc1ccccc1 (configuration not stated) | > 100 µM | > 100 µM | > 100 µM | > 100 µM | > 100 µM | > 100 µM | > 100 µM |  |  |  |  |  |  |  |  |  |  |  |  |  |
| CSC(=S)NNC(=O)c1ccncc1 | 33.9 µM | 32.7 µM | 62.6 µM | 31.1 µM | 36.2 µM | 52.6 µM | 31.4 µM | 47.3 µM |  |  |  |  |  |  |  |  |  |  |  |  |
| COc1cnc2c(c1)C(=O)c1c-2n(CCCN2CCN(C)CC2)c(=O)c2cc(Cl)ccc12 | 23.2 µM | 87.1 µM | 25.2 µM |  | 14.3 µM | 36.2 µM | 52.1 µM | 27.3 µM | 12.9 µM | 36.2 µM | 5.29 µM | 10.4 µM | 12.3 µM | 3.6 µM | 65.7 µM | 11 µM | 6.32 µM | 0.783 µM | 0.584 µM |  |
| O=C(C=Nc1ccccc1C(=O)[O-])c1cccs1.O=C(C=Nc1ccccc1C(=O)[O-])c1cccs1.[Cu+2] | > 100 µM | > 100 µM |  | > 100 µM | > 100 µM |  | > 100 µM | > 100 µM |  |  |  |  |  |  |  |  |  |  |  |  |
| COC(=O)C1=CC2OC1(C)C1(CC1)C2=O (configuration not stated) |  | 35.9 µM |  |  | 34.4 µM | 43.5 µM | 20.7 µM | 34.6 µM |  |  |  |  |  |  |  |  |  |  |  |  |
| Cc1ccc2[nH]c(=O)c(C(C#N)c3ccccc3)nc2c1 (configuration not stated) | 65.4 µM | > 100 µM | 57.8 µM | 75.1 µM | > 100 µM | > 100 µM | 70.7 µM | > 100 µM |  |  |  |  |  |  |  |  |  |  |  |  |
| COC(=O)C(=O)C(C(=O)C(=O)Nc1cc([N+](=O)[O-])ccc1[N+](=O)[O-])c1nc2ccc(C(=O)c3ccccc3)cc2[nH]c1=O (configuration not stated) | > 100 µM | > 100 µM | 45.9 µM |  | > 100 µM | 89 µM | 70.6 µM | 60.2 µM |  |  |  |  |  |  |  |  |  |  |  |  |
| COc1ccccc1NC(=O)C1=C(C)NC(C)=C(C(=O)Nc2ccccc2OC)C1c1ccccc1OC | > 100 µM | > 100 µM | > 100 µM | > 100 µM | > 100 µM | > 100 µM | > 100 µM | > 100 µM |  |  |  |  |  |  |  |  |  |  |  |  |
| CC1OC(O)CC(OC(=O)c2ccccc2)C1OC(=O)c1ccccc1 (configuration not stated) |  | > 100 µM | 31.4 µM | 31.5 µM | > 100 µM |  | > 100 µM | 37.1 µM |  |  |  |  |  |  |  |  |  |  |  |  |
| COc1cc2c(cc1OC)[C@@]1(C)C(=O)c3cc4c(cc3[C@H]1N(C)C2=O)OCO4 | > 100 µM | > 100 µM | > 100 µM | > 100 µM | > 100 µM | > 100 µM | 85.6 µM |  | 41.1 µM | > 100 µM | 40.4 µM | 33.9 µM | 44.1 µM | 75.2 µM | > 100 µM | 45.5 µM | 10.4 µM | 52.2 µM |  | 26 µM |
| COC(=O)c1c2c(c(C)[n+]([O-])c1C)C(=O)C(NCc1ccc(F)c(F)c1)=CC2=O | 6.73 µM |  | 2.38 µM | 3.35 µM | 7.68 µM | 8.14 µM | 3.75 µM | 6.24 µM | 2.76 µM | 11.9 µM | 2.16 µM |  | 2.69 µM | 1.91 µM | 7.75 µM | 1.14 µM | 1.57 µM | 2.48 µM | 1.62 µM | 1.53 µM |
| CC12CC3CC(C)(C1)CC(N=[N+]=[N-])(C3)C2 | > 100 µM | > 100 µM | > 100 µM | > 100 µM | > 100 µM | > 100 µM | > 100 µM | > 100 µM |  |  |  |  |  |  |  |  |  |  |  |  |
| CCOC(=O)C1=C(C)N(NC(=O)c2ccccc2)C2(O)CCCC12C(=O)OCC (configuration not stated) | > 100 µM | > 100 µM | > 100 µM | > 100 µM | > 100 µM | > 100 µM | > 100 µM | > 100 µM |  |  |  |  |  |  |  |  |  |  |  |  |
| NC(=O)Oc1cc(OC(N)=O)cc(N(CCCl)CCCl)c1 | 47.8 µM | 49 µM | 52.5 µM | 18.4 µM |  | 77.7 µM | 6.12 µM | > 100 µM | 23.2 µM | 76.3 µM | 15.6 µM | 6.71 µM | 14.9 µM | 7.1 µM | 54.8 µM | 6.93 µM | 2.08 µM |  | 1.04 µM | 4.1 µM |
| CCC[CH2][Sn]([CH2]CCC)([S]C1=NCCS1)[S]C1=NCCS1 | 0.566 µM | 2.74 µM | 1.76 µM | 0.814 µM | 1.31 µM | 2.12 µM | 0.0562 µM |  |  |  | 0.194 µM | 1.3 µM | 0.741 µM |  |  | 0.452 µM | 0.0133 µM | 0.368 µM |  | 0.177 µM |
| CC(C)(O)[C@H]1[C@@H]2OC(=O)[C@H]1[C@]1(O)C[C@H]3OC34C(=O)O[C@H]2[C@@]41C (some centres not stated) (tested in a mixture with another compound) | > 100 µM | > 100 µM | > 100 µM | > 100 µM | > 100 µM | > 100 µM | > 100 µM |  |  | > 100 µM |  |  |  |  | > 100 µM |  |  |  |  |  |
| COC(=O)C1C(=O)O[C@@H](c2ccc(OC)cc2OC)C1C(=O)OC (some centres not stated) |  | > 100 µM | > 100 µM | > 100 µM | > 100 µM | > 100 µM |  | > 100 µM |  |  |  |  |  |  |  |  |  |  |  |  |
| Cn1c2cccc3nnc4cccc(c4c32)n1C | > 100 µM | > 100 µM | > 100 µM | > 100 µM | > 100 µM | > 100 µM |  |  |  |  |  |  |  |  |  |  |  |  |  |  |
| COC(=O)C1=CC2OC13CC1CCC3(C2=O)C1(C)C (configuration not stated) | 28.7 µM | 39.9 µM | 30.7 µM | 30.6 µM | 21.2 µM | 34.2 µM | 9.37 µM |  |  |  |  |  |  |  |  |  |  |  |  |  |
| O=C1C=CC2(C=C1)CCN=c1c(O)c3c(c(O)c12)=NC=N3 | 16 µM and > 100 µM | 31 µM |  |  | 25.7 µM and > 100 µM | 38.4 µM and > 100 µM | 16.6 µM and > 100 µM | > 100 µM |  | 71.4 µM and > 100 µM |  |  | 19 µM and > 100 µM | 10.1 µM and > 100 µM | 35 µM and > 100 µM |  |  | 12.6 µM and > 100 µM | 10.6 µM and 93 µM |  |
